US12435051B2, “Dual modulator of mGluR5 and 5-HT2A receptor, and use thereof” (Vivozon Inc., priority 2020, dated 2025)

Target: T1, human 5-HT2AR (Homo sapiens, UniProt P28223)
T1 construct: expressed in transfected cells; host or cells: HEK293
Assay: HTRF-based IP1 accumulation assay (5-HT2AR antagonistic effect)
Format: cell-based
Conditions: HEK293 cells overexpressing human 5-HT2AR; serotonin at EC80
Protocol: The 5-HT2AR antagonistic effect of the test compounds was confirmed by measuring the production amount of IP1 using the HEK293 cell line permanently overexpressing the human 5-HT2AR. The test compounds were dissolved in 100% DMSO to a final concentration of 10 mM. The starting concentration of 10 μM was prepared from the stock solution, followed by serial dilutions to prepare working solutions in a buffer containing lithium chloride (LiCl). The cells and compounds prepared in the test buffer were placed in a 96-well plate and incubated at room temperature for 10 minutes. Serotonin of EC80 concentration was added, followed by incubation at 37° C. for 30 minutes in a light-shielding state. To measure IP1 accumulation in cells, JP1-d2 acceptor and IP1-Cryptate donor-which are HTRF-based substances for fluorescence signals-were added and incubated for 1 hour at room temperature in a light-shielded state. The fluorescent emission signals of acceptor and donor were detected, and HTRF ratio values were substracted by mean value of serotonin control. The percentage of activation was calculated by normalization of the serotonin control (0%) and IP1 control (100%). The IC50 values of the test compounds are represented in Table 1. (+: 1,000-2,000 nM, ++: 500-1,000 nM, +++: 100-500 nM, ++++: less than 100 nM).

T1 sequence (P28223 whole entry): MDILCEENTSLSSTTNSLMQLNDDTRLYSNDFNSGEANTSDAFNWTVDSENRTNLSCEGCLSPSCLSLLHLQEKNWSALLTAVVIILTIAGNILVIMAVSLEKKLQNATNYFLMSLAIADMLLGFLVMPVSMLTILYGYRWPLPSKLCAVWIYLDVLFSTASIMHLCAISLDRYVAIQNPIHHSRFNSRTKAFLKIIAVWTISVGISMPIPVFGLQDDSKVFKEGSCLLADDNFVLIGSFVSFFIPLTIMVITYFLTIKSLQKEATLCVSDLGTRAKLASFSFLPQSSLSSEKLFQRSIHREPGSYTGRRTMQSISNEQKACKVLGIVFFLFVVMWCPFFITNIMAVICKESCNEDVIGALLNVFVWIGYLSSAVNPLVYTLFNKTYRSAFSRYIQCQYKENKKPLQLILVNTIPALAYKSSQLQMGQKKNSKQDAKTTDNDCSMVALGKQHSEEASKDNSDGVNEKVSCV

| IC50 [µM] | Structure (SMILES) |
| --- | --- |
| < 0.1 | CC1(CNC(=O)c2ccc(C#Cc3ccc(F)cc3F)cc2)CCCO1 (stereo not drawn) [Example 119, 4-((2,4-difluorophenyl)ethynyl)-N-((2-methyltetrahydrofuran-2-yl)methyl)benzamide] |
| < 0.1 | O=C(NCC1CC(F)(F)C1)c1ccc(C#Cc2ccc(F)cc2F)cc1 [Example 120, N-((3,3-difluorocyclobutyl)methyl)-4-((2,4-difluorophenyl)ethynyl)benzamide] |
| 0.5 to 1 | O=C(NCC1CCC(F)(F)CC1)c1ccc(C#Cc2ccc(F)cc2F)cc1 [Example 121, N-((4,4-difluorocyclohexyl)methyl)-4-((2,4-difluorophenyl)ethynyl)benzamide] |
| < 0.1 | CCC1(CNC(=O)c2ccc(C#Cc3ccc(F)cc3F)cc2)COC1 [Example 122, 4-((2,4-difluorophenyl)ethynyl)-N-((3-ethyloxetan-3-yl)methyl)benzamide] |
| < 0.1 | O=C(NCC1(F)COC1)c1ccc(C#Cc2ccc(F)cc2F)cc1 [Example 123, 4-((2,4-difluorophenyl)ethynyl)-N-((3-fluorooxetan-3-yl)methyl)benzamide] |

Further lines, the compound ahead of its results:

| Structure (SMILES) | IC50 [µM] |
| --- | --- |
| O=C(NC[C@@H]1CCOC1)c1ccc(C#Cc2ccc(F)cc2F)cc1 [Example 113, (S)-4-((2,4-difluorophenyl)ethynyl)-N-((tetrahydrofuran-3-yl)methyl)benzamide] | < 0.1 |
| O=C(NC[C@H]1CCCO1)c1ccc(C#Cc2ccc(F)cc2F)cc1 [Example 114, (R)-4-((2,4-difluorophenyl)ethynyl)-N-((tetrahydrofuran-2-yl)methyl)benzamide] | < 0.1 |
| O=C(NCC1CCCCO1)c1ccc(C#Cc2ccc(F)cc2F)cc1 (stereo not drawn) [Example 115, 4-((2,4-difluorophenyl)ethynyl)-N-((tetrahydro-2H-pyran-2-yl)methyl)benzamide] | < 0.1 |
| CC1(CNC(=O)c2ccc(C#Cc3ccc(F)cc3)cc2)CCCO1 (stereo not drawn) [Example 116, 4-((4-fluorophenyl)ethynyl)-N-((2-methyltetrahydrofuran-2-yl)methyl)benzamide] | < 0.1 |
| O=C(NC[C@@H]1CCCO1)c1ccc(C#Cc2ccc(F)cc2F)cc1 [Example 117, (S)-4-((2,4-difluorophenyl)ethynyl)-N-((tetrahydrofuran-2-yl)methyl)benzamide] | < 0.1 |
| O=C(NCC1CCO1)c1ccc(C#Cc2ccc(F)cc2F)cc1 (stereo not drawn) [Example 118, 4-((2,4-difluorophenyl)ethynyl)-N-(oxetan-2-ylmethyl)benzamide] | < 0.1 |
| O=C(NC[C@@H]1CCCOC1)c1ccc(C#Cc2ccc(F)cc2F)cc1 [Example 124, (S)-4-((2,4-difluorophenyl)ethynyl)-N-((tetrahydro-2H-pyran-3-yl)methyl)benzamide] | 0.1 to 0.5 |

Target: T2, mGluR5 (Homo sapiens, UniProt P41594)
T2 construct: expressed in transfected cells; host or cells: HEK293
T2 sequence (P41594 21-1212): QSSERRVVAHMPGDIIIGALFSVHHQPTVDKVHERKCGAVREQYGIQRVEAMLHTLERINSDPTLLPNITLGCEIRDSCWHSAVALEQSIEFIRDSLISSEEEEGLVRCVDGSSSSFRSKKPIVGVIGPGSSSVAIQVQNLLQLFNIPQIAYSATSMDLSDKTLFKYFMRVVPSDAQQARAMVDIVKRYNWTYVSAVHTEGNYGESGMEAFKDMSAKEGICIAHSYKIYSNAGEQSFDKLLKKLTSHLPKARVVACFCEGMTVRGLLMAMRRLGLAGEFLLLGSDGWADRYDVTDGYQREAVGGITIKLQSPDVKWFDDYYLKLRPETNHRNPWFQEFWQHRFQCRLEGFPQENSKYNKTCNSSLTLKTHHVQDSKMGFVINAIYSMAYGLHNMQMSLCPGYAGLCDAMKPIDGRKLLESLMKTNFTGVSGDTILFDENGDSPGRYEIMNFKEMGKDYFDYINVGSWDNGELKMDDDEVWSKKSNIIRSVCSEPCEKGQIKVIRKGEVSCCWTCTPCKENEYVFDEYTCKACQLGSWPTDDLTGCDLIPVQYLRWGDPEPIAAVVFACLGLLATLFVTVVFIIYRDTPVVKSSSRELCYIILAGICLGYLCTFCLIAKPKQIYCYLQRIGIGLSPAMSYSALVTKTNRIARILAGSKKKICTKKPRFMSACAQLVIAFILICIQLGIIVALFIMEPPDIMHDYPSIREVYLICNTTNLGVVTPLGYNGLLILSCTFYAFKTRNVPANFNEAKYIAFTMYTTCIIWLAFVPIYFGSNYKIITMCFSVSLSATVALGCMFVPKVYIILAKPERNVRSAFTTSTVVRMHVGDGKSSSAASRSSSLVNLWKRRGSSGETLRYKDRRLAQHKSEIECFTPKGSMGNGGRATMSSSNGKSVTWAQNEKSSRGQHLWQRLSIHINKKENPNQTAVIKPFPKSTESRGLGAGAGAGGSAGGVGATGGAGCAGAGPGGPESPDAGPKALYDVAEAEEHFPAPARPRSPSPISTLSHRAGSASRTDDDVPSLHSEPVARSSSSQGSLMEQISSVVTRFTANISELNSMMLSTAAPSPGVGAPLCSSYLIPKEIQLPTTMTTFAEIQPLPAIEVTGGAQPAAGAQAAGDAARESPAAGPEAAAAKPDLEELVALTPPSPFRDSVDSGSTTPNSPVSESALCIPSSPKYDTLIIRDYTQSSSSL
Assay: Fluorescence-based Ca2+ mobilization assay
Format: cell-based
Conditions: HEK293 cells overexpressing mGluR5; L-glutamate at EC80
Protocol: In order to measure the activity on the mGluR5, an experiment was carried out to check the change in the intracellular Ca^2+ level using the HEK293 cell line permanently overexpressing the mGluR5. The cells in the cell culture medium were aliquoted into a 384-well plate coated with poly-D-lysine and cultured in a 37° C. incubator supplied with 5% CO2. The next day, the medium was removed and a dye loading buffer—in which a reagent capable of measuring Ca^2+ was dissolved—was added, and then incubated at 37° C. for 60 minutes. The test compounds were dissolved in 100% DMSO at a final concentration of 10 mM to make a stock solution. The starting concentration of […] was prepared from the stock solution, followed by serial dilutions to prepare working solutions (test compound working solutions). The test compound working solutions were added to the cells that were incubated in the dye loading buffer, which were maintained for 30 minutes at room temperature in a light-shielding state before measurement. The Ca^2+ level change induced by L-glutamate at EC80 concentration was measured for 2 minutes using FLIPR Tetra (MDS Analytical Technologies). The fluorescent Ca^2+ signal values in the presence of the test compounds were normalized to the fluorescent signal elicited by […] concentration of L-glutamate as 100% and that elicited by vehicle as 0% to estimate % inhibition of the test compounds. The efficacy of the test compounds was calculated as IC50 values and represented in Table 1. (+: 1,000-2,000 nM, ++: 500-1,000 nM, +++: 100-500 nM, ++++: less than 100 nM).

| IC50 [µM] | Structure (SMILES) |
| --- | --- |
| < 0.1 | CC1(CNC(=O)c2ccc(C#Cc3ccc(F)cc3F)cc2)CCCO1 (stereo not drawn) [Example 119, 4-((2,4-difluorophenyl)ethynyl)-N-((2-methyltetrahydrofuran-2-yl)methyl)benzamide] |
| 0.1 to 0.5 | O=C(NCC1CC(F)(F)C1)c1ccc(C#Cc2ccc(F)cc2F)cc1 [Example 120, N-((3,3-difluorocyclobutyl)methyl)-4-((2,4-difluorophenyl)ethynyl)benzamide] |
| < 0.1 | O=C(NCC1CCC(F)(F)CC1)c1ccc(C#Cc2ccc(F)cc2F)cc1 [Example 121, N-((4,4-difluorocyclohexyl)methyl)-4-((2,4-difluorophenyl)ethynyl)benzamide] |
| 0.1 to 0.5 | CCC1(CNC(=O)c2ccc(C#Cc3ccc(F)cc3F)cc2)COC1 [Example 122, 4-((2,4-difluorophenyl)ethynyl)-N-((3-ethyloxetan-3-yl)methyl)benzamide] |
| 0.5 to 1 | O=C(NCC1(F)COC1)c1ccc(C#Cc2ccc(F)cc2F)cc1 [Example 123, 4-((2,4-difluorophenyl)ethynyl)-N-((3-fluorooxetan-3-yl)methyl)benzamide] |

Continued, compound first:

| Structure (SMILES) | IC50 [µM] |
| --- | --- |
| O=C(NC[C@@H]1CCOC1)c1ccc(C#Cc2ccc(F)cc2F)cc1 [Example 113, (S)-4-((2,4-difluorophenyl)ethynyl)-N-((tetrahydrofuran-3-yl)methyl)benzamide] | 0.5 to 1 |
| O=C(NC[C@H]1CCCO1)c1ccc(C#Cc2ccc(F)cc2F)cc1 [Example 114, (R)-4-((2,4-difluorophenyl)ethynyl)-N-((tetrahydrofuran-2-yl)methyl)benzamide] | < 0.1 |
| O=C(NCC1CCCCO1)c1ccc(C#Cc2ccc(F)cc2F)cc1 (stereo not drawn) [Example 115, 4-((2,4-difluorophenyl)ethynyl)-N-((tetrahydro-2H-pyran-2-yl)methyl)benzamide] | 0.1 to 0.5 |
| CC1(CNC(=O)c2ccc(C#Cc3ccc(F)cc3)cc2)CCCO1 (stereo not drawn) [Example 116, 4-((4-fluorophenyl)ethynyl)-N-((2-methyltetrahydrofuran-2-yl)methyl)benzamide] | < 0.1 |
| O=C(NC[C@@H]1CCCO1)c1ccc(C#Cc2ccc(F)cc2F)cc1 [Example 117, (S)-4-((2,4-difluorophenyl)ethynyl)-N-((tetrahydrofuran-2-yl)methyl)benzamide] | 0.5 to 1 |
| O=C(NCC1CCO1)c1ccc(C#Cc2ccc(F)cc2F)cc1 (stereo not drawn) [Example 118, 4-((2,4-difluorophenyl)ethynyl)-N-(oxetan-2-ylmethyl)benzamide] | 1 to 2 |
| O=C(NC[C@@H]1CCCOC1)c1ccc(C#Cc2ccc(F)cc2F)cc1 [Example 124, (S)-4-((2,4-difluorophenyl)ethynyl)-N-((tetrahydro-2H-pyran-3-yl)methyl)benzamide] | 0.1 to 0.5 |
